Assays:
[1] = molecular target: Bacterial leucyl aminopeptidase (Vibrio proteolyticus, UniProt Q01693); experiment: Inhibition of Aeromonas proteolytica leucyl aminopeptidase using L-leucine para-notroanilide as substrate assessed as release of para-nitroaniline by Dixon plot analysis
[2] = molecular target: T1, Aminopeptidase N (Sus scrofa, UniProt P15145); experiment: Inhibition of porcine kidney APN using L-leucine para-notroanilide as substrate assessed as release of para-nitroaniline by Dixon plot analysis
T1 sequence (P15145 whole entry): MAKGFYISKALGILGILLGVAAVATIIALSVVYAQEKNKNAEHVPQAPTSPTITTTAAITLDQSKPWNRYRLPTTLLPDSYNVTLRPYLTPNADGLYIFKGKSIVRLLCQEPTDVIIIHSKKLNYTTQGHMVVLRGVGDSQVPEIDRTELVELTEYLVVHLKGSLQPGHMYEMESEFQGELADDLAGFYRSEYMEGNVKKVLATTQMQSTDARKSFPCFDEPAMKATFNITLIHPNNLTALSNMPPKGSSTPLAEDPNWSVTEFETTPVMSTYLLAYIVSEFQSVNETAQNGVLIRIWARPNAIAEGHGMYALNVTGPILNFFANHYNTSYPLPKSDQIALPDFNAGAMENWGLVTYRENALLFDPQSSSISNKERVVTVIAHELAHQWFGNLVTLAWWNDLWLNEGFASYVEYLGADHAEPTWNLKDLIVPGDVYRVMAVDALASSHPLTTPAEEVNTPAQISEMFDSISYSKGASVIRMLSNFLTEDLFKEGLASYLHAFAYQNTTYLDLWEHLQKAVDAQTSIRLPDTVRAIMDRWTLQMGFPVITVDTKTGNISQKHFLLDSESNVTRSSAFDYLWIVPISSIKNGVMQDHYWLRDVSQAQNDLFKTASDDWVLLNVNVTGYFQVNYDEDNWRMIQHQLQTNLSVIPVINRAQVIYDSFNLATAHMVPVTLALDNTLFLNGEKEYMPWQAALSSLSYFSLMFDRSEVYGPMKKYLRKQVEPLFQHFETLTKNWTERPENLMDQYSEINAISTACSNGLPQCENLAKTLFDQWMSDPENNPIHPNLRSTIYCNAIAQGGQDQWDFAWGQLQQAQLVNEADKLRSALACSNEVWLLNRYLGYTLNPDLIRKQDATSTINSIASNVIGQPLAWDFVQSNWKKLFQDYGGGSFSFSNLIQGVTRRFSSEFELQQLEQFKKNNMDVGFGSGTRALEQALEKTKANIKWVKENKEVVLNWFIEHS

Bacterial leucyl aminopeptidase, sequence (Q01693 whole entry): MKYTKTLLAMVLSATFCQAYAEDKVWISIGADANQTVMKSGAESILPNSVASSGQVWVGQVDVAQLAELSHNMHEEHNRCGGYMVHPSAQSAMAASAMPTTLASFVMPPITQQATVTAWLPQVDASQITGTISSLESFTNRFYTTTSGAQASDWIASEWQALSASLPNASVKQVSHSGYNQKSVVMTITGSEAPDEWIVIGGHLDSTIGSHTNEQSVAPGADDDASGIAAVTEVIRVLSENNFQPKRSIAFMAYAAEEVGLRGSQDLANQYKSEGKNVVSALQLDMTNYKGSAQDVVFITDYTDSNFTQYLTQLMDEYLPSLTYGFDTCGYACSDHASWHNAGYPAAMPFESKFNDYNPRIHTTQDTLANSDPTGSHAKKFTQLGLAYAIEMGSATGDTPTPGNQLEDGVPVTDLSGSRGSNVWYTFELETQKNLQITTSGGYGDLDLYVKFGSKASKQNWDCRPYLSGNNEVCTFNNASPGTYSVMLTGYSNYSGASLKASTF

SMILES | Ki [1] | IC50 [2] | IC50 [1] | Ki [2]
N[C@H]1Cc2ccccc2CC(=O)[C@H]1O (racemic) | 0.01 µM | > 1 mM |  | 
N[C@H]1Cc2ccccc2C[C@@H](O)C1=O (racemic) | 4 µM | > 0.1 mM |  | 
N[C@@H]1C(=O)Cc2ccccc2C[C@@H]1O (racemic) |  | > 1 mM | > 1000 µM | 
NC1CCc2ccccc2CC1=O (stereo unspecified) |  |  | 900 µM | 

Other lines, results leading:

Ki [1] | IC50 [2] | IC50 [1] | Ki [2] | SMILES
78 µM | > 1 mM |  |  | N[C@@H]1[C@H](O)Cc2ccccc2C[C@@H]1O
24 µM |  |  | 42 µM | N[C@H]1Cc2ccccc2C[C@H](O)C1=O (racemic)

Source: ChEMBL document CHEMBL2440033, “Synthesis of amino-hydroxy-benzocycloheptenones as potent, selective, non-peptidic dinuclear zinc metalloaminopeptidase inhibitors” (Bioorg Med Chem, 2013)
